Like-named read-outs stand apart in the source and are kept apart here. *1 amine or outer side, *2 acyl side, *3 side chain or, on linkers, in order; H or OH if unused. Where a SMILES comes first, the peptide text is derived from it. Side-chain parts run from the residue outwards. [ ]: non-standard residue; d: D form. The star is where a group is joined. Phenylsulfonyl(4-anisamido) = COc1ccc(C(=O)Nc2ccc(S(=O)(=O)*)cc2)cc1; Benzoyl(4-(4-EtNHCO-PhO)) = CCNC(=O)c1ccc(Oc2ccc(C(=O)*)cc2)cc1; Benzenesulfonyl(4-OPh) = O=S(=O)(c1ccc(Oc2ccccc2)cc1)*; X4 = NC(=O)CCCCNC(=O)c1ccc(Oc2ccc(C(=O)*)cc2)cc1; X2 = CCOc1ccc(C(=O)Nc2ccc(S(=O)(=O)*)cc2)cc1; Benzoyl(4-OPh) = O=C(c1ccc(Oc2ccccc2)cc1)*; X9 = O=C(NCCCO)c1ccc(Oc2ccc(C(=O)*)cc2)cc1; d(γGlu) = O=C(O)[C@@H](CCC(=O)[*:2])N[*:1]; d(βAsp) = O=C(O)[C@@H](CC(=O)[*:2])N[*:1]; NMeW = CN[C@@H](Cc1c[nH]c2ccccc12)C(=O)O; C16 diacid = O=C(O)CCCCCCCCCCCCCCC(=O)*; X13 = Cc1ccc(C#Cc2ccc(S(=O)(=O)*)s2)cc1; X5 = O=S(=O)(c1ccc(-c2ccc(CO)cc2)cc1)*; NMeF = CN[C@@H](Cc1ccccc1)C(=O)O; NMeGABA = CN(CCCC(=O)[*:2])[*:1]; NMeI = CC[C@H](C)[C@H](NC)C(=O)O; NMeT = CN[C@H](C(=O)O)[C@@H](C)O; NMeE = CN[C@@H](CCC(=O)O)C(=O)O; NMeN = CN[C@@H](CC(N)=O)C(=O)O; Dap(Me) = CNC[C@H](N)C(=O)O; NMeM = CN[C@@H](CCSC)C(=O)O; NMeV = CN[C@H](C(=O)O)C(C)C; β3hP = O=C(O)C[C@@H]1CCCN1; NMeA = CN[C@@H](C)C(=O)O; Dab = NCC[C@H](N)C(=O)O; Dap = NC[C@H](N)C(=O)O; AEEA = NCCOCCOCC(=O)O; Aib = CC(C)(N)C(=O)O; Ava = NCCCCC(=O)O; GABA = NCCCC(=O)O
Molecular target: T1, MMP2 (Homo sapiens, UniProt P08253)
T1 sequence (P08253 110-660): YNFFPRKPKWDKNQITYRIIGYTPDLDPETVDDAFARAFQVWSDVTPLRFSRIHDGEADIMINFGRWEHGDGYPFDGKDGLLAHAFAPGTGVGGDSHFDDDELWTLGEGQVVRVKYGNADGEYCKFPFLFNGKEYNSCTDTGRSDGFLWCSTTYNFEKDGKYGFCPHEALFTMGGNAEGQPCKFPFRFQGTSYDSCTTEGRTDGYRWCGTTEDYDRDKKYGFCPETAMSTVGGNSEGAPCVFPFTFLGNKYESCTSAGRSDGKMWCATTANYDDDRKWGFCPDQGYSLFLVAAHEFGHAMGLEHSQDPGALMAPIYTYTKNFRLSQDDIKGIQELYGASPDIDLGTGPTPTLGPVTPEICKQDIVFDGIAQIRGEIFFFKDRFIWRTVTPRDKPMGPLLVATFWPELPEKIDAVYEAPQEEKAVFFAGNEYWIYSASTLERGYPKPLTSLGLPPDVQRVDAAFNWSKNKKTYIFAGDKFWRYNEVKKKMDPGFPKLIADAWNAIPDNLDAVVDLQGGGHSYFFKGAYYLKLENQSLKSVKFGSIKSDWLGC
Assay: Inhibitory effects on human MMP2 (Method 1), enzyme assay with MOCAc-Pro-Leu-Gly-Leu-A2pr(Dnp)-Ala-Arg-NH2 substrate, 96-well
Format: biochemical
Conditions: read-out: Human MMP2, IC50
Experimental: In a reaction solution [50 mmol/L Tris-HCl (pH 7.5), 150 mmol/L NaCl, 10 mmol/L CaCl2, 0.05% Brij L23], 100 μg/mL human recombinant MMP2 enzyme and 1 mmol/L 4-Aminophenylmercuric acetate were mixed together, and reacted at 37° C. for 60 minutes. The human MMP2 activated through the reaction was poured into a 96-well microplate to reach a final concentration of 0.7 or 7 ng/mL.

[1] = Test Example No. 1-1 (Method 1, 96-well microplate)

## COc1ccc(C(=O)Nc2ccc(S(=O)(=O)N[C@H](CCC(=O)N[C@@H](CCN)C(=O)N[C@@H](CC(C)C)C(=O)N(C)[C@@H](CCC(=O)O)C(=O)N3CCC[C@H]3CC(N)=O)C(=O)O)cc2)cc1 [Compound 697] ({Phenylsulfonyl(4-anisamido)-d(γGlu)}-[Dab]L[NMeE][β3hP]-NH2; N-terminus assumed)
[1]
  IC50: 0.28 nM

## CC[C@H](C)[C@@H](C(=O)N1CCC[C@H]1CC(N)=O)N(C)C(=O)[C@H](CC(C)C)NC(=O)[C@H](CNC)NC(=O)[C@H](CC(=O)O)NC(=O)[C@H](CC(N)=O)N(C)C(=O)CCCNC(=O)c1ccc(Oc2ccccc2)cc1 [Compound 154] ({Benzoyl(4-OPh)-GABA}-[NMeN]D[Dap(Me)]L[NMeI][β3hP]-NH2; N-terminus assumed)
[1]
  IC50: 0.44 nM

## CC[C@H](C)[C@@H](C(=O)N1CCC[C@H]1CC(N)=O)N(C)C(=O)[C@H](CC(C)C)NC(=O)[C@H](CCN)NC(=O)[C@H](CC(=O)O)NC(=O)[C@H](CC(N)=O)N(C)C(=O)CCCNC(=O)c1ccc(Oc2ccccc2)cc1 [Compound 110] ({Benzoyl(4-OPh)-GABA}-[NMeN]D[Dab]L[NMeI][β3hP]-NH2; N-terminus assumed)
[1]
  IC50: 0.37 nM

## CC[C@H](C)[C@@H](C(=O)N1CCC[C@H]1C(N)=O)N(C)C(=O)[C@H](CC(C)C)NC(=O)[C@H](C)NC(=O)[C@H](CC(=O)O)NC(=O)[C@H]([C@@H](C)O)N(C)C(=O)CCCNC(=O)c1ccc(Oc2ccccc2)cc1 [Compound 131] ({Benzoyl(4-OPh)-GABA}-[NMeT]DAL[NMeI]P-NH2; N-terminus assumed)
[1]
  IC50: 0.36 nM

## CC(C)C[C@H](NC(=O)[C@H](CCN)NC(=O)[C@H](CC(=O)O)NC(=O)[C@H](CC(N)=O)N(C)C(=O)CCCNC(=O)c1ccc(Oc2ccccc2)cc1)C(=O)N(C)[C@@H](CCC(=O)O)C(=O)N1CCC[C@H]1CC(N)=O [Compound 112] ({Benzoyl(4-OPh)-GABA}-[NMeN]D[Dab]L[NMeE][β3hP]-NH2; N-terminus assumed)
[1]
  IC50: 0.55 nM

## CCOc1ccc(C(=O)Nc2ccc(S(=O)(=O)N[C@H](CCC(=O)N[C@@H](CCN)C(=O)N[C@@H](CC(C)C)C(=O)N(C)[C@H](C(=O)N3CCC[C@H]3CC(N)=O)[C@@H](C)CC)C(=O)O)cc2)cc1 [Compound 698] ({X2-d(γGlu)}-[Dab]L[NMeI][β3hP]-NH2; N-terminus assumed)
[1]
  IC50: 0.31 nM

## CC[C@H](C)[C@@H](C(=O)N1CCC[C@H]1C(N)=O)N(C)C(=O)[C@H](CC(C)C)NC(=O)[C@H](CCN)NC(=O)[C@H](CC(=O)O)NC(=O)[C@H](CCSC)N(C)C(=O)CCCNC(=O)c1ccc(Oc2ccccc2)cc1 [Compound 134] ({Benzoyl(4-OPh)-GABA}-[NMeM]D[Dab]L[NMeI]P-NH2)
[1]
  IC50: 2 nM

## CC[C@H](C)[C@@H](C(=O)N1CCC[C@H]1C(N)=O)N(C)C(=O)[C@H](CC(C)C)NC(=O)[C@H](C)NC(=O)[C@H](CC(=O)O)NC(=O)[C@H](C)N(C)C(=O)CCCN(C)C(=O)c1ccc(Oc2ccccc2)cc1 [Compound 100] ({Benzoyl(4-OPh)}-[NMeGABA][NMeA]DAL[NMeI]P-NH2; N-terminus assumed)
[1]
  IC50: 1.2 nM

## CCNC(=O)c1ccc(Oc2ccc(C(=O)NCCCCC(=O)N[C@@H](CCCNC(=N)N)C(=O)N[C@@H](CC(=O)O)C(=O)N[C@@H](CCN)C(=O)N[C@@H](CC(C)C)C(=O)N(C)[C@H](C(=O)N3CCC[C@H]3CC(N)=O)[C@@H](C)CC)cc2)cc1 [Compound 197] ({Benzoyl(4-(4-EtNHCO-PhO))-Ava}-RD[Dab]L[NMeI][β3hP]-NH2; N-terminus assumed)
[1]
  IC50: 2.6 nM

## CC(C)C[C@H](NC(=O)[C@H](CN)NC(=O)C[C@@H](NS(=O)(=O)c1ccc(-c2ccc(CO)cc2)cc1)C(=O)O)C(=O)N(C)[C@@H](CCC(=O)O)C(=O)N1CCC[C@H]1CC(N)=O [Compound 637] ({X5-d(βAsp)}-[Dap]L[NMeE][β3hP]-NH2; N-terminus assumed)
[1]
  IC50: 0.48 nM

## CC(C)C[C@H](NC(=O)[C@H](CCN)NC(=O)[C@H](CC(=O)O)NC(=O)[C@H](CCC(=O)O)NC(=O)CCCCNC(=O)c1ccc(Oc2ccc(C(=O)NCCCCC(N)=O)cc2)cc1)C(=O)N(C)[C@@H](CCC(=O)O)C(=O)N1CCC[C@H]1CC(N)=O [Compound 199] ({X4-Ava}-ED[Dab]L[NMeE][β3hP]-NH2; N-terminus assumed)
[1]
  IC50: 1.4 nM

## CC[C@H](C)[C@@H](C(=O)N1CCC[C@H]1CC(N)=O)N(C)C(=O)[C@H](CC(C)C)NC(=O)[C@H](C)NC(=O)[C@H](CC(=O)O)NC(=O)[C@H](CCCCNC(=O)COCCOCCNC(=O)COCCOCCNC(=O)CC[C@@H](NC(=O)CCCCCCCCCCCCCCC(=O)O)C(=O)O)NC(=O)CCCNS(=O)(=O)c1ccc(Oc2ccccc2)cc1 [Compound 903, (2S,5S,32R)-2-{[(2S)-1-({(2S)-1-[{(2S,3S)-1-[(2S)-2-(2-amino-2-oxoethyl)pyrrolidin-1-yl]-3-methyl-1-oxopentan-2-yl}(methyl)amino]-4-methyl-1-oxopentan-2-yl}amino)-1-oxopropan-2-yl]carbamoyl}-4,11,20,29,34-pentaoxo-5-{4-[(4-phenoxybenzene-1-sulfonyl)amino]butanamido}-13,16,22,25-tetraoxa-3,10,19,28,33-pentaazaoctatetracontane-1,32,48-tricarboxylic acid] ({Benzenesulfonyl(4-OPh)-GABA}-K([AEEA-AEEA-d(γGlu)-C16 diacid])DAL[NMeI][β3hP]-NH2)
Test Example No. 1-1 (Method 1, 96-well)
  IC50: 0.127 nM

## CC[C@H](C)[C@@H](C(=O)N1CCC[C@H]1C(N)=O)N(C)C(=O)[C@H](CC(C)C)NC(=O)[C@H](CCN)NC(=O)[C@H](CC(=O)O)NC(=O)[C@H](CC(N)=O)N(C)C(=O)CCCNC(=O)c1ccc(Oc2ccccc2)cc1 [Compound 111] ({Benzoyl(4-OPh)-GABA}-[NMeN]D[Dab]L[NMeI]P-NH2; N-terminus assumed)
[1]
  IC50: 0.96 nM

## CC[C@H](C)[C@@H](C(=O)N1CCC[C@H]1C(N)=O)N(C)C(=O)[C@H](CC(C)C)NC(=O)[C@H](C)NC(=O)[C@H](CC(=O)O)NC(=O)[C@H](Cc1ccccc1)N(C)C(=O)CCCNC(=O)c1ccc(Oc2ccccc2)cc1 [Compound 124] ({Benzoyl(4-OPh)-GABA}-[NMeF]DAL[NMeI]P-NH2; N-terminus assumed)
[1]
  IC50: 0.31 nM

## CC[C@H](C)[C@@H](C(=O)N1CCC[C@H]1C(N)=O)N(C)C(=O)[C@H](CC(C)C)NC(=O)[C@H](C)NC(=O)[C@H](CC(=O)O)NC(=O)[C@H](CCC(N)=O)NC(=O)CCCNC(=O)c1ccc(Oc2ccccc2)cc1 [Compound 128] ({Benzoyl(4-OPh)-GABA}-QDAL[NMeI]P-NH2; N-terminus assumed)
[1]
  IC50: 0.15 nM

## CC[C@H](C)[C@@H](C(=O)NC(C)(C)C(N)=O)N(C)C(=O)[C@H](CC(C)C)NC(=O)[C@H](C)NC(=O)[C@H](CC(=O)O)NC(=O)[C@H](C)N(C)C(=O)CCCNC(=O)c1ccc(Oc2ccccc2)cc1 [Compound 96] ({Benzoyl(4-OPh)-GABA}-[NMeA]DAL[NMeI][Aib]-NH2)
[1]
  IC50: 0.74 nM

## CSCC[C@@H](C(=O)N1CCC[C@H]1C(N)=O)N(C)C(=O)[C@H](CC(C)C)NC(=O)[C@H](C)NC(=O)[C@H](CC(=O)O)NC(=O)[C@H](CC(N)=O)NC(=O)CCCNS(=O)(=O)c1ccc(C#Cc2ccc(C)cc2)s1 [Compound 588] ({X13-GABA}-NDAL[NMeM]P-NH2; N-terminus assumed)
[1]
  IC50: 0.12 nM

## CC(C)C[C@H](NC(=O)[C@H](CCN)NC(=O)[C@H](CC(=O)O)NC(=O)[C@H](CC(N)=O)NC(=O)CCCCNC(=O)c1ccc(Oc2ccc(C(=O)NCCCO)cc2)cc1)C(=O)N(C)[C@@H](CCC(=O)O)C(=O)N1CCC[C@H]1CC(N)=O [Compound 182] ({X9-Ava}-ND[Dab]L[NMeE][β3hP]-NH2; N-terminus assumed)
[1]
  IC50: 0.49 nM

## CC[C@H](C)[C@@H](C(=O)N[C@@H](CC(=O)O)C(=O)N[C@@H](C)C(=O)N[C@@H](CC(C)C)C(=O)N(C)[C@H](C(=O)N1CCC[C@H]1C(N)=O)[C@@H](C)CC)N(C)C(=O)CCCNC(=O)c1ccc(Oc2ccccc2)cc1 [Compound 121] ({Benzoyl(4-OPh)-GABA}-[NMeI]DAL[NMeI]P-NH2; N-terminus assumed)
[1]
  IC50: 0.19 nM

## CC(C)C[C@H](NC(=O)[C@H](CCN)NC(=O)[C@H](CC(=O)O)NC(=O)[C@@H](NC(=O)CCCNC(=O)c1ccc(Oc2ccccc2)cc1)C(C)C)C(=O)N(C)[C@@H](CCC(=O)O)C(=O)N1CCC[C@H]1CC(N)=O [Compound 143] ({Benzoyl(4-OPh)-GABA}-VD[Dab]L[NMeE][β3hP]-NH2; N-terminus assumed)
[1]
  IC50: 2.6 nM

## CC[C@H](C)[C@@H](C(=O)N1CCC[C@H]1C(N)=O)N(C)C(=O)[C@H](CC(C)C)NC(=O)[C@H](C)NC(=O)[C@H](CC(=O)O)NC(=O)[C@H](C(C)C)N(C)C(=O)CCCNC(=O)c1ccc(Oc2ccccc2)cc1 [Compound 119] ({Benzoyl(4-OPh)-GABA}-[NMeV]DAL[NMeI]P-NH2; N-terminus assumed)
[1]
  IC50: 0.17 nM

## CC[C@H](C)[C@@H](C(=O)N1CCC[C@H]1C(N)=O)N(C)C(=O)[C@H](CC(C)C)NC(=O)[C@H](C)NC(=O)[C@H](CC(=O)O)NC(=O)[C@H](Cc1c[nH]c2ccccc12)N(C)C(=O)CCCNC(=O)c1ccc(Oc2ccccc2)cc1 [Compound 130] ({Benzoyl(4-OPh)-GABA}-[NMeW]DAL[NMeI]P-NH2; N-terminus assumed)
[1]
  IC50: 0.36 nM
